Experimental data taken from patent publication US20060154922A1, “Muscarinic agonists” (ELILILLY AND COMPANY, priority 2003, published 2006).
Like-named read-outs stand apart in the source and are kept apart here.

System: Male Sprague-Dawley rats
Settings: six-hour delay

Nc1c2c(nc3ccccc13)CCCC2 [Tacrine, tacrine]
retention (errors in the retention session) (3 mg/kg s.c. immediately after the sampling phase): not | retention (errors in the retention session) (10 mg/kg s.c. immediately after the sampling phase): significantly improved retention
